Patent US9957261B2 (Hoffmann-La Roche Inc., priority 2014, dated 2018)

How the values were obtained:
[1] = target: rat TAAR1 (Rattus norvegicus (Rat), UniProt Q923Y9); assay: Radioligand binding assay on rat TAAR1; settings: rat TAAR1, membranes of stably transfected HEK-293 cells; second value of mouse/rat pair
Description: (§1) Construction of TAAR Expression Plasmids and Stably Transfected Cell Lines
(§2) For the construction of expression plasmids the coding sequences of human, rat and mouse TAAR 1 were amplified from genomic DNA essentially as described by Lindemann et al.. The Expand High Fidelity PCR System (Roche Diagnostics) was used with 1.5 mM Mg^2+ and purified PCR products were cloned into pCR2.1-TOPO cloning vector (Invitrogen) following the instructions of the manufacturer. PCR products were subcloned into the pIRESneo2 vector (BD Clontech, Palo Alto, Calif.), and expression vectors were sequence verified before introduction in cell lines.
(§3) HEK293 cells (ATCC # CRL-1573) were cultured essentially as described by Lindemann et al. (2005). For the generation of stably transfected cell lines HEK293 cells were transfected with the pIRESneo2 expression plasmids containing the TAAR coding sequences (described above) with Lipofectamine 2000 (Invitrogen) according to the instructions of the manufacturer, and 24 hrs post transfection the culture medium was supplemented with 1 mg/ml G418 (Sigma, Buchs, Switzerland). After a culture period of about 10 d clones were isolated, expanded and tested for responsiveness to trace amines (all compounds purchased from Sigma) with the cAMP Biotrak Enzyme immunoassay (EIA) System (Amersham) following the non-acetylation EIA procedure provided by the manufacturer.
Radioligand Binding Assay on Rat TAAR1
(§4) Membrane Preparation and Radioligand Binding.
(§5) HEK-293 cells stably expressing rat TAAR1 were maintained at 37° C. and 5% CO2 in DMEM high glucose medium, containing fetal calf serum (10%, heat inactivated for 30 min at 56° C.), penicillin/streptomycin (1%), and 375 μg/ml geneticin (Gibco). Cells were released from culture flasks using trypsin/EDTA, harvested, washed twice with ice-cold PBS (without Ca^2+ and Mg^2+), pelleted at 1′000 rpm for 5 min at 4° C., frozen and stored at −80° C. Frozen pellets were suspended in 20 ml HEPES-NaOH (20 mM, pH 7.4) containing 10 mM EDTA and homogenized with a Polytron (PT 6000, Kinematica) at 14,000 rpm for 20 s. The homogenate was centrifuged at 48,000×g for 30 min at 4° C. Subsequently, the supernatant was removed and discarded, and the pellet resuspended in 20 ml HEPES-NaOH (20 mM, pH 7.4) containing 0.1 mM EDTA using the Polytron (20 s at 14,000 rpm). This procedure was repeated and the final pellet resuspended in HEPES-NaOH containing 0.1 mM EDTA and homogenized using the Polytron. Typically, aliquots of 2 ml membrane portions were stored at −80° C. With each new membrane batch the dissociation constant (Kd) was determined via a saturation curve. […] Nonspecific binding was defined as the amount of [H]—(S)-4-[(ethyl-phenyl-amino)-methyl]-4,5-dihydro-oxazol-2-ylamine bound in the presence of 10 μM unlabeled ligand. All compounds were tested at a broad range of concentrations (10 pM to 10 μM) in duplicates. […] The 96 deep well plates were incubated for 1 hr at 4° C. Incubations were terminated by rapid filtration through Unifilter-96 plates (Packard Instrument Company) and glass filters GF/C (Perkin Elmer) presoaked for 1 hr in polyethylenimine (0.3%) and washed 3 times with 1 ml of cold binding buffer. After addition of 45 μl of Microscint 40 (PerkinElmer) the Unifilter-96 plate was sealed and after 1 hr the radioactivity counted using a TopCount Microplate Scintillation Counter (Packard Instrument Company).

[2] = target: mouse TAAR1 (Mus musculus (Mouse), UniProt Q923Y8); assay: Radioligand binding assay on mouse TAAR1; settings: mouse TAAR1, membranes of stably transfected HEK-293 cells; first value of mouse/rat pair
Chain of mouse TAAR1 (Q923Y8 whole entry): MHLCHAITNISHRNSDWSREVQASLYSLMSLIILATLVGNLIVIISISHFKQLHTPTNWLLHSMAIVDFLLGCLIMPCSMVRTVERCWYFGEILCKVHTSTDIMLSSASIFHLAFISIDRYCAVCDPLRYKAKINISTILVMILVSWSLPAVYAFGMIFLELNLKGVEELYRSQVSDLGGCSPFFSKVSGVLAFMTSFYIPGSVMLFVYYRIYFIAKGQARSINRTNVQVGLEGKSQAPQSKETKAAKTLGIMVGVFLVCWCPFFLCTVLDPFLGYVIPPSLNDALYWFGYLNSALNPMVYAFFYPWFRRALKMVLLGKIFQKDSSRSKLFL
Description: as §1, §2, §3
Radioligand Binding Assay on Mouse TAAR1
as §4
as §5, with “expressing mouse” for “expressing rat”, “of ^3[H]—(S)-4-[(ethyl-phenyl-amino)-methyl]-4,5-dihydro-oxazol-2-ylamine” for “of [H]—(S)-4-[(ethyl-phenyl-amino)-methyl]-4,5-dihydro-oxazol-2-ylamine”

Chain of rat TAAR1 (Q923Y9 whole entry): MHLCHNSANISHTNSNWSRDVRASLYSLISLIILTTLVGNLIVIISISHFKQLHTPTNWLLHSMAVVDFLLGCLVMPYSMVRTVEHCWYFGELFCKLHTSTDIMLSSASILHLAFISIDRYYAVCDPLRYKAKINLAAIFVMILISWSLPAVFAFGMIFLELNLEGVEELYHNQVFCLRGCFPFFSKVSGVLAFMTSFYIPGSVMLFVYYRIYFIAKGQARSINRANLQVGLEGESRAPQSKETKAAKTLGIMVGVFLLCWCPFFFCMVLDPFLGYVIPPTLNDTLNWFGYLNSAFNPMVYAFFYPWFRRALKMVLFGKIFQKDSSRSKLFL

Ki [1] [µM]	Ki [2] [µM]	SMILES
0.0198	0.0318	Cc1cc(C(=O)Nc2ccc3c(c2)CC[C@H](N)C3)nc(C(F)(F)F)n1 [Example 7, (S)—N-(6-Amino-5,6,7,8-tetrahydronaphthalen-2-yl)-6-methyl-2-(trifluoromethyl)-pyrimidine-4-carboxamide]
0.0077	0.0035	N[C@H]1COc2cc(NC(=O)c3cc(Cl)nc(Cl)c3)ccc2C1 [Example 91, (R)—N-(3-Aminochroman-7-yl)-2,6-dichloroisonicotinamide]
0.0243	0.0088	Cc1cc(C(=O)Nc2ccc3c(c2)OC[C@H](N)C3)cc(Cl)n1 [Example 89, (R)—N-(3-Aminochroman-7-yl)-2-chloro-6-methylisonicotinamide]
0.0044	0.0026	N#Cc1ccc(C(=O)Nc2ccc3c(c2)OC[C@H](N)C3)cc1F [Example 86, (R)—N-(3-Aminochroman-7-yl)-4-cyano-3-fluorobenzamide]
0.0119	0.0083	CCc1n[nH]c(C(=O)Nc2ccc3c(c2)OC[C@H](N)C3)c1C [Example 88, (R)—N-(3-Aminochroman-7-yl)-3-ethyl-4-methyl-1H-pyrazole-5-carboxamide]
0.0035	0.0132	CCCc1cc(C(=O)Nc2ccc3c(c2)CCC(N)C3)nn1CC(F)F (centres unmarked) [Example 3, N-(6-Amino-5,6,7,8-tetrahydronaphthalen-2-yl)-1-(2,2-difluoroethyl)-5-propyl-1H-pyrazole-3-carboxamide]
0.0189	0.0009	N[C@H]1COc2cc(NC(=O)c3ccc(F)c(F)c3)ccc2C1 [Example 87, (R)—N-(3-Aminochroman-7-yl)-3,4-difluorobenzamide]
0.0096	0.187	CCCc1cc(C(=O)Nc2ccc3c(c2)OC[C@@H](N)C3)nn1CC(F)F [Example 11, (S)—N-(3-Aminochroman-7-yl)-1-(2,2-difluoroethyl)-5-propyl-1H-pyrazole-3-carboxamide]
0.0063	0.0117	N[C@H]1CCc2cc(NC(=O)c3ccnc(C(F)(F)F)c3)ccc2C1 [Example 45, (S)—N-(6-Amino-5,6,7,8-tetrahydronaphthalen-2-yl)-2-(trifluoromethyl)isonicotinamide]
0.0044	0.0073	N[C@@H]1CCc2cc(C(=O)Nc3cccc(OC(F)(F)F)c3)ccc2C1 [Example 78, (R)-6-Amino-N-(3-(trifluoromethoxy)phenyl)-5,6,7,8-tetrahydronaphthalene-2-carboxamide]
0.241	1.45	Cc1cc(C(=O)Nc2ccc3c(c2)OC[C@@H](N)C3)nc(C(F)(F)F)n1 [Example 13, (S)—N-(3-Aminochroman-7-yl)-6-methyl-2-(trifluoromethyl)pyrimidine-4-carboxamide]
0.0544	0.232	Cc1cc(C(=O)Nc2ccc3c(c2)CC[C@@H](N)C3)nc(C(F)(F)F)n1 [Example 6, (R)—N-(6-Amino-5,6,7,8-tetrahydronaphthalen-2-yl)-6-methyl-2-(trifluoromethyl)-pyrimidine-4-carboxamide]
0.0055	0.0914	CCCc1cc(C(=O)Nc2ccc3c(c2)CC[C@@H](N)C3)nn1CC(F)F [Example 4, (R)—N-(6-Amino-5,6,7,8-tetrahydronaphthalen-2-yl)-1-(2,2-difluoroethyl)-5-propyl-1H-pyrazole-3-carboxamide]
0.0003	0.0011	N[C@H]1CCc2cc(NC(=O)Nc3ccc(C(F)(F)F)cc3)ccc2C1 [Example 24, (S)-1-(6-Amino-5,6,7,8-tetrahydronaphthalen-2-yl)-3-(4-(trifluoromethyl)phenyl)urea]
0.0034	0.0018	Cc1nc(-c2ccc(C(=O)Nc3ccc4c(c3)OC[C@H](N)C4)cc2)cs1 [Example 83, (R)—N-(3-Aminochroman-7-yl)-4-(2-methylthiazol-4-yl)benzamide]

Continued, compound first:

SMILES	Ki [1] [µM]	Ki [2] [µM]
N[C@H]1CCc2cc(NC(=O)c3ccc4ccccc4c3)ccc2C1 [Example 43, (S)—N-(6-Amino-5,6,7,8-tetrahydronaphthalen-2-yl)-2-naphthamide]	0.001	0.0006
N[C@H]1CCc2cc(NC(=O)NCc3cccc(OC(F)(F)F)c3)ccc2C1 [Example 63, (S)-1-(6-Amino-5,6,7,8-tetrahydronaphthalen-2-yl)-3-(3-(trifluoromethoxy)benzyl)urea]	0.0039	0.002
N[C@@H]1CCc2cc(NC(=O)c3ccc(Cl)cc3)ccc2C1 [Example 14, (R)—N-(6-Amino-5,6,7,8-tetrahydronaphthalen-2-yl)-4-chlorobenzamide]	0.0069	0.0092
N[C@H]1CCc2cc(NC(=O)c3cc(Cl)nc(Cl)c3)ccc2C1 [Example 46, (S)—N-(6-Amino-5,6,7,8-tetrahydronaphthalen-2-yl)-2,6-dichloroisonicotinamide]	0.0022	0.0042
N[C@H]1CCc2cc(NC(=O)c3cnn(-c4ccc(Cl)c(Cl)c4)c3)ccc2C1 [Example 28, (S)—N-(6-Amino-5,6,7,8-tetrahydronaphthalen-2-yl)-1-(3,4-dichlorophenyl)-1H-pyrazole-4-carboxamide]	0.0003	0.0007
CC(=O)Nc1cc(C(=O)Nc2ccc3c(c2)CC[C@H](N)C3)ccn1 [Example 18, (S)-2-Acetamido-N-(6-amino-5,6,7,8-tetrahydronaphthalen-2-yl)isonicotinamide]	0.232	0.71
CCOc1cc(C(=O)Nc2ccc3c(c2)CC[C@H](N)C3)ccn1 [Example 19, (S)—N-(6-Amino-5,6,7,8-tetrahydronaphthalen-2-yl)-2-ethoxyisonicotinamide]	0.0216	0.0187
N#Cc1ccc(NC(=O)c2ccc3c(c2)CCC(N)C3)cc1 (centres unmarked) [Example 70]	0.0032	0.0044
NC1CCc2cc(C(=O)Nc3ccc(C4CC4)cc3)ccc2C1 (centres unmarked) [Example 60, 6-Amino-N-(4-cyclopropylphenyl)-5,6,7,8-tetrahydronaphthalene-2-carboxamide]	0.0213	0.0096
N[C@H]1CCc2cc(NC(=O)Nc3ccc(Cl)cc3)ccc2C1 [Example 74, (S)-1-(6-Amino-5,6,7,8-tetrahydronaphthalen-2-yl)-3-(4-chlorophenyl)urea]	0.0005	0.001
